Here are results for seven molecules from patent US9260707B2, “Compounds for inhibition of MMP13-substrate interactions and methods of use thereof to treat osteoarthritis and cartilage degeneration” (ProteaPex Therapeutics, LLC, priority 2010, dated 2016).

Peptide text beside a SMILES is read from it.

One data set has as its system MMP. To be noted: in vivo; cited from earlier work.
The test system of a further data set is MMP13. The data set is described as follows: MMP13 enzymatic activity in cartilage extracts with inhibitors. The class given is biochemical, avian. The procedure:
Utilizing a standard curve with MMP13 and MMP9 catalytic domains (Enzo, Inc) we quantitated the amount of MMP13 and MMP9 activity in cartilage extracts (Table 4). Cartilage isolated from day 17 avian embryos contain 0.166 units and 0.152 units MMP13 per 40 μg total tissue in early hypertrophic and late hypertrophic tissue, respectively. […] Inclusion of an inhibitor of MMP13 (Calbiochem) reduces the activity in both cartilage populations by 24% and 30% respectively.

Data set [1] in a line: Toxicity in vivo by blood analysis. On the set-up: species or system rat. How it is done: Cytotoxicity was assessed by Alomar Blue Assay (Invitrogen) on primary chondrocytes and a monocyte cell line incubated for 24 hours with PxTx001-1. Absorbance was recorded at 570 nm for every hour up to 24 hrs to monitor both proliferation and metabolic activity. (FIG. 39). Toxicity in vivo was determined by blood analysis from rats that had been injected with the peptide as described previously. Total cell count, blood components and serum proteins were measured (Table 5).

Data set [2] has as its system resting cartilage tissue extract (LTBP1-containing TGFβ large latent complex). The data set is described as follows: Peptide binding assay, resting cartilage tissue extract. On the set-up: species or system avian. To be noted: 100 nM fluorescent-labeled peptide. The source says:
(§1) Cartilage from day 17 avian embryo sterna was extracted with 0.5% CHAPS buffer and binding assays conducted. Scr=scrambled control; +cold=unlabeled competition. *=p<0.001 compared to scrambled. ***=p<0.001 compared to MMP13-derived peptide by ANOVA with Tukey's Analysis. (A) Resting cartilage and MMP13-19 peptide. (B) Hypertrophic cartilage and MMP13-19 peptide. (C) Hypertrophic cartilage and MMP13-10 peptide D. hypertrophic cartilage and MMP13-6 peptide.
(§2) Twenty-five micrograms of total equal protein from cartilage CHAPS extracts or five nanograms recombinant protein of the calcium-like EGF binding domain of LTBP1 (a kind gift of Sarah Dallas) or hypertrophic cartilage from day 17 avian embryo sterna and tibial growth plate cartilage from day 14 newborn rat pups were extracted with 0.5% CHAPS buffer and eluates immunoprecipitated with polyclonal antibody to LTBP1 and then samples were plated onto poly-L-lysine coated 96 well plates. After overnight drying, the protein-coated wells were incubated with 100 nM fluorescent-labeled peptide in Tris buffered saline [150 mM NaCl, 10 mM Tris, pH 8.0] and 20% horse serum for 4 hours at 16° C. After incubation, the wells are washed twice with binding buffer, the protein layer solubilized with 5N NaOH and fluorescence bound measured at 495 nm excitation and 520 nm emission on the LabSystems Fluoroskan Ascent CF plate reader. […]

In data set [3] the test system is hypertrophic chondrocyte-produced extracellular matrix (LTBP1 in native conformation). The data set is described as follows: Peptide binding to extracellular matrix of whole cell primary chondrocyte cultures. On the set-up: species or system avian. How it is done: (§3) Binding assays utilizing intact hypertrophic chondrocyte-produced extracellular matrix, LTBP1 immunoprecipitates of hypertrophic chondrocyte-produced extracellular matrix and recombinant protein of the calcium-binding, EGF-like domains of LTBP1 (30) were performed as described in Materials and Methods. *=p<0.001 compared to scrambled. ***=p<0.001 compared to MMP13-derived peptide by ANOVA with Tukey's analysis. (A) Intact hypertrophic chondrocyte-produced extracellular matrix and MMP13-19 or MMP13-10 peptide binding. (B) 25 μg eluates of hypertrophic cartilage immunoprecipitated with polyclonal antibody to LTBP1 and MMP13-19 peptide binding. (C) 15 ng of recombinant protein of the calcium-binding, EGF-like domains and MMP13-19 or MMP13-10 or MMP13-6 peptide binding.
Sterna were removed from day 17 chick embryos using microsurgical techniques as previously described (D'Angelo et al., J. Bone Miner. Res. 12:1368-1377, 1997). […] The cell suspensions were then filtered through a […] filter, counted, seeded onto Falcon 6-well, tissue culture treated plates and covered with 2 ml of high glucose DMEM containing 10% NuSerum and 50 μg/ml of penicillin/streptomycin, 2 mM of L-glutamine (Invitrogen Life Technologies, Carlsbad, Calif., USA). […]

Data set [4] deals with hypertrophic cartilage tissue extract (LTBP1-containing TGFβ large latent complex). The data set can be described thus: Peptide binding assay, hypertrophic cartilage tissue extract. To be noted: 100 nM fluorescent-labeled peptide. On the set-up: species or system avian.
Description: as §1, §2

The subject of data set [5] is calcium-binding EGF-like domains of LTBP1 (CE-LTBP1). The data set can be described thus: Peptide binding to recombinant calcium-binding EGF-like domains of LTBP1 (CE-LTBP1). The procedure:
as §3, with “(C) 15 ng of recombinant protein of the calcium-binding, EGF-like domains and MMP13-19 or MMP13-10 or MMP13-6 peptide binding.” left out
as §2, with “After overnight drying, the protein-coated wells were incubated with 100 nM fluorescent-labeled peptide in Tris buffered saline [150 mM NaCl, 10 mM Tris, pH 8.0] and 20% horse serum for 4 hours at 16° C.” left out

For data set [6], the system named is mono-iodoacetate (MIA)-induced osteoarthritis. The data set is described as follows: MIA-induced osteoarthritis, cartilage mineralization (total and bone volume), d14 and d21. The class given is in vivo, rat. On the set-up: Total Volume / Bone Volume: unit not given here. How it is done: Isolated joints were analyzed by Micro CT to measure cortical bone, trabecular bone and cartilage of the patella, femur and tibia, the production of chondrophytes and tissue mineralization in response to treatment. Total mineralization in the patella, femur and tibial cartilages, as well as subchondral bone, were calculated with Scanco μCT software. Micro-CT was conducted with a Scanco uCT 35 (Scanco Medical, Bassersdorf, Switzerland) system. Scans of 15 μm voxel size, 55 KVp, 0.36 degrees rotation step (180 degrees angular range) and a 600 ms exposure per view produced from joints immersed in phosphate buffered saline.
Animals were treated with MMP13-19 peptide or BMP-7 protein once a week for two (d14) or three (d21) weeks following an injection of mono-iodoacetate (MIA), a chemical agent that induces osteoarthritis pathology measurable at four weeks post injection. The samples that received saline are the positive disease control. 250 nM of MMP13-19 peptide and 50 uM BMP-7 were injected laterally below the patellar ligament. […] But, it is also known that BMP-7 is bone-inducing.

A further data set has as its system MIA-induced OA model. The data set is described as follows: Acute treatment of MIA-induced OA, week 4 micro CT. Type of data set: in vivo, rat.

`COc1ccc(S(=O)(=O)N(Cc2cccnc2)[C@@H](C(=O)NO)C(C)C)cc1` [CGS-27023A]: in the data set with MMP, the “side-effects in treatment of OA” value is given as “severe side-effects known as MMP-induced musculoskeletal syndrome”.

For `Cc1cc(CNC(=O)c2cc(C(=O)NCc3ccc(F)c(C)c3)ncn2)ccc1F` [MMP13 Inhibitor], the “reduction of MMP13 activity” value in the data set on MMP13 (early hypertrophic tissue) is 24%; with MMP13 (late hypertrophic tissue) it was 30%.

`CC[C@H](C)[C@H](NC(=O)[C@H](CCCCN)NC(=O)[C@H](CCCCN)NC(=O)[C@@H](NC(=O)[C@H](CCC(=O)O)NC(=O)[C@H](CCCCN)NC(=O)[C@@H]1CCCN1C(=O)[C@H](CC(C)C)NC(=O)CNC(=O)[C@H](CC(C)C)NC(=O)[C@@H](N)CCC(=O)O)C(C)C)C(=O)N[C@@H](CO)C(=O)N[C@@H](C)C(=O)N[C@@H](C)C(=O)N[C@H](C(=O)N[C@@H](Cc1c[nH]cn1)C(=O)N[C@@H](Cc1ccccc1)C(=O)N[C@@H](CCC(=O)O)C(=O)N[C@@H](CC(=O)O)C(=O)O)C(C)C` [MMP13-19 peptide] (H-ELGLPKEVKKISAAVHFED-OH): in data set [1] (1 injection), the ALT was 56 U/L, the AST was found to be 99 U/L, the “Alk Phos” value is 272 U/L and the BUN was determined as 15 mg/dL. For the same molecule, in data set [1] (1 injection), the Cholesterol was determined as 74 mg/dL, the Creatinine is reported as 0.4 mg/dL, the RBC is 5.59e+06 µL⁻¹ and the “Total Bilirubin” value was determined as 0.3 mg/dL. The molecule also came in with a WBC in [1] (1 injection) of 3600 µL⁻¹. In data set [1] (4 injections), the ALT is on record as 52 U/L, the AST is given as 95 U/L, the “Alk Phos” value amounted to 194.5 U/L and the BUN is recorded as 18 mg/dL. In [1] (4 injections), the Cholesterol is on record as 67.5 mg/dL, the Creatinine is 0.3 mg/dL, the RBC was 6.9e+06 µL⁻¹ and the “Total Bilirubin” value is reported as 1.1 mg/dL. In data set [1] (4 injections), this molecule came in with a WBC of 4550 µL⁻¹. For the same molecule, in data set [1] (rats injected with the peptide), the “total cell count, blood components and serum proteins (all parameters measured)” value is recorded as “within normal ranges”.

Take “MMP13-6 peptide: amino acids 37-42 of SEQ ID NO: 1 (VDAELF; listed as Homo sapiens)”: the “binding compared to scrambled peptide control” value in data set [2] and in [4] was “did not specifically bind” each time. In data set [3], the “binding compared to scrambled peptide” value is given as “did not bind specifically”. In [5], the “binding of recombinant protein more than scrambled peptide” value was “did not bind specifically”.

Consider “MMP13-10 peptide: amino acids 17-26 of SEQ ID NO: 1 (LRGETMIFKD; listed as Homo sapiens)”, for which the “binding compared to scrambled peptide control” value in data set [2] and in [4] was “less than two-fold” each time. Besides, the “binding compared to scrambled peptide” value in data set [3] was “four-fold”. The “binding of recombinant protein more than scrambled peptide” value in [5] is given as “did not bind specifically”.

For `CC1(C)SCCN(S(=O)(=O)c2ccc(Oc3ccncc3)cc2)[C@H]1C(=O)NO` [prinomastat], in the data set on MMP, the “side-effects in treatment of OA” value is recorded as “severe side-effects known as MMP-induced musculoskeletal syndrome”.

B1: BMP-7: BMP-7 protein, positive control, chondroprotective and bone-inducing (protein, UniProt P18075 293-431, looked up)
Bone morphogenetic protein 7: STGSKQRSQNRSKTPKNQEALRMANVAENSSSDQRQACKKHELYVSFRDLGWQDWIIAPEGYAAYYCEGECAFPLNSYMNATNHAIVQTLVHFINPETVPKPCCAPTQLNAISVLYFDDSSNVILKKYRNMVVRACGCH
On to B1, for which the BV/TV was determined as 0.0626 in data set [6] (Patellar cartilage d14), 0.0192 in data set [6] (Patellar cartilage d21), 0.0435 in [6] (Total Joint Cartilage d14) and 0.0412 in data set [6] (Total Joint Cartilage d21). Further, the “Bone Volume” value in data set [6] (Patellar cartilage d14) is recorded as 0.419; in data set [6] (Patellar cartilage d21) it was 0.2037; in data set [6] (Total Joint Cartilage d14), 1.0643; in [6] (Total Joint Cartilage d21), 0.9607. The “Total Volume” value worked out at 6.6967 in data set [6] (Patellar cartilage d14, 250 nM peptide or 50 uM BMP-7 once a week); 10.7748 in data set [6] (Patellar cartilage d21); 24.4891 in data set [6] (Total Joint Cartilage d14); 23.3101 in data set [6] (Total Joint Cartilage d21). Also, the “BV/TV (ratio of bone volume to total volume)” value was 0.2245 +/− 0.066 in the data set on MIA-induced OA model (Femur); 0.6846 +/− 0.084 with MIA-induced OA model (Patella, 250 nM peptide or 500 ng BMP7 weekly infrapatellar); 0.1757 +/− 0.087 in the data set on MIA-induced OA model (Tibia). The “TbN (trabecular number)” value is recorded as 4.200 +/− 0.830 in the data set on MIA-induced OA model (Femur), 6.2122 +/− 0.169 with MIA-induced OA model (Patella) and 4.9095 +/− 0.719 in the data set with MIA-induced OA model (Tibia).
